Source: US20170204102A1, “AGRICULTURAL AGENT CONTAINING 2,5-DIKETOPIPERAZINE DERIVATIVE AS ACTIVE INGREDIENT” (NAPRO BIOTEC INC., priority 2010, published 2017)
Read-outs that look alike come from different tables or passages of the source.

Legend:
[1] = system: Pectobacterium carotovorum SCC1; experiment: Inhibition of soft rot lesion in tobacco leaf; assay type: in vivo
[2] = system: Pectobacterium carotovorum SCC1; experiment: Inhibition of soft rot lesion in cucumber leaf; assay type: in vivo
[3] = system: Colletotrichum orbiculare; assay type: in vivo; conditions: cucumber; for Number of anthractic lesions in first leaf: control 12.5; for Number of anthractic lesions in second leaf: control 96.8
[4] = system: Pectobacterium carotovorum SCC1; experiment: Inhibition of naturally occurring soft rot in Chinese cabbage hydrocultured in summer; assay type: in vivo; conditions: for Appearance of soft rot: 20 ppm, sprayed, examined 1 week later, control 58
Excerpt: After spraying test compounds to hydrocultured Chinese cabbage, naturally occurring soft rot was examined 1 week later.

cucumber leaf = experiment: Promotion of growth of cucumber leaf; conditions: Cucumis sativus, read-out: Width of leaf
Description: Plant leaves were tested with test compounds by drenching. […] 3-5 days later, the width of the leaves was measured again to compare the growth of the leaves relative to the control group.

Colletotrichum acutatum = experiment: Inhibition of anthracnose in red pepper fruit after soil drench; conditions: control 50
[5] = system: PR-1α promoter fused to the GUS gene; experiment: PR-1α-GUS activity in tobacco leaf; assay type: in vivo; conditions: control 54
Description: After adding 960 μL of stop buffer (0.2M sodium carbonate) to make 1 mL, fluorescence was measured using a TKO 100 fluorometer (Hoefer Scientific Instruments, USA).

[6] = system: anthracnose-causing Colletotrichum orbiculare; assay type: in vivo; conditions: tobacco leaf, control 240.3
PR-1 gene = conditions: background art; cited from earlier work
PDF1.2 gene = conditions: background art; cited from earlier work

Row | Structure (SMILES) | Area of lesion ([1]; 1 ppm, Table 4, control 100) [%] | Area of lesion ([1]; 10 ppm, Table 4, control 100) [%] | Area of lesion ([1]; 100 ppm, Table 4, control 100) [%] | Area of lesion ([2]; 1 ppm, Table 7, control 100) [%] | Area of lesion ([2]; 10 ppm, Table 7, control 100) [%] | Area of lesion ([2]; 100 ppm, Table 7, control 100) [%] | Number of anthractic lesions in first leaf ([3]; 0.1 ppm) | Number of anthractic lesions in second leaf ([3]; 0.1 ppm) | Number of anthractic lesions in first leaf ([3]; 1 ppm) | Number of anthractic lesions in second leaf ([3]; 1 ppm) | Number of anthractic lesions in first leaf ([3]; 10 ppm) | Number of anthractic lesions in second leaf ([3]; 10 ppm) | Number of anthractic lesions in first leaf ([3]; 100 ppm) | Number of anthractic lesions in second leaf ([3]; 100 ppm) | response vs control in vivo at 1 ppm (cucumber leaf) [%] | response vs control in vivo at 10 ppm (cucumber leaf) [%] | response vs control in vivo at 100 ppm (cucumber leaf) [%] | Appearance of anthracnose (Colletotrichum acutatum; 1 ppm) [%] | Appearance of anthracnose (Colletotrichum acutatum; 10 ppm) [%] | Appearance of anthracnose (Colletotrichum acutatum; 100 ppm) [%] | also measured
1 | CC(C)CC1NC(=O)CNC1=O (stereo not shown) [Compound No. 2, 3-(2-methylpropyl)-2,5-diketopiperazine] | – | – | – | – | – | – | – | – | – | – | – | – | – | – | – | – | – | – | – | – | Area of lesion ([1]; 1 ppm, Table 3, control 87.5): 32.5%; Area of lesion ([1]; 10 ppm, Table 3, control 87.5): 40%; Area of lesion ([1]; 100 ppm, Table 3, control 87.5): 60%; Area of lesion ([2]; 1 ppm, Table 6, control 100): 92.5%; Area of lesion ([2]; 10 ppm, Table 6, control 100): 82.5%; Area of lesion ([2]; 100 ppm, Table 6, control 100): 50%; melting point: 241 to 244 °C
2 | CCC(C)C1NC(=O)C2CCCN2C1=O (stereo not shown) [Compound No. 28, 3-(1-methylpropyl)hexahydropyrrolo[1,2-a]pyrazin-1,4-dione] | 12.5 | 82.5 | 2.5 | 55 | 83 | 65 | 5.3 | 55.3 | 2.3 | 62.3 | 12.3 | 87.3 | 10.8 | 77.3 | 100 | 120 | 129 | 0 | 25 | 0 | Appearance of soft rot [4]: 49%; melting point: 104 to 105 °C
3 | O=C1NCC(=O)N2CCCC12 (stereo not shown) [Compound No. 29, hexahydropyrrolo[1,2-a]pyrazin-1,4-dione] | 27.5 | 0 | 0 | 43 | 63 | 90 | 0.8 | 51.3 | 5.0 | 35.8 | 10.0 | 55.5 | 5.0 | 87.0 | 100 | 120 | 115 | 0 | 0 | 0 | Appearance of soft rot [4]: 14%; Inhibitory effect against soft rot in Chinese cabbage (in words) ([4]; Table 11, FIG. 10): very superior inhibitory effect
4 | CC1NC(=O)C2CCCN2C1=O (stereo not shown) [Compound No. 25, 3-methylhexahydropyrrolo[1,2-a]pyrazin-1,4-dione] | 15 | 12.5 | 0 | 78 | 73 | 85 | 3.8 | 37.0 | 1.3 | 46.0 | 1.0 | 22.5 | 2.0 | 27.8 | 121 | 119 | 123 | 0 | 25 | 25 | Appearance of soft rot [4]: 19%
5 | CC(C)C1NC(=O)C2CCCN2C1=O (stereo not shown) [Compound No. 26, 3-isopropylhexahydropyrrolo[1,2-a]pyrazin-1,4-dione] | – | – | – | – | – | – | – | – | – | – | – | – | – | – | 112 | 128 | 129 | – | – | – | PR-1α-GUS activity ([5]; 0.1 ppm): 34,967 nM MU/10 mg/h; PR-1α-GUS activity ([5]; 1 ppm): 27,497 nM MU/10 mg/h; Number of anthractic lesions ([6]; 0.1 ppm): 67.1; Number of anthractic lesions ([6]; 1 ppm): 63.3
6 | CSC(=O)c1cccc2nnsc12 [BTH, benzo-1,2,3-thiadiazole-7-carbothioic acid S-methyl ester, reference compound] | 95 | 95 | 95 | 90 | 90 | 90 | 0.8 | 100.3 | 0.8 | 100.3 | 0.8 | 100.3 | 0.8 | 100.3 | 93.8 | 90.5 | 92 | 25 | 0 | 0 | PR-1α-GUS activity ([5]; 1 ppm): 21,015 nM MU/10 mg/h; Number of anthractic lesions ([6]; 1 ppm): 58.3; Area of lesion ([1]; 1 ppm, Table 3, control 87.5): 52.5%; Area of lesion ([1]; 1 ppm, Table 5, control 73.75): 50%; Area of lesion ([1]; 10 ppm, Table 3, control 87.5): 52.5%; Area of lesion ([1]; 10 ppm, Table 5, control 73.75): 50%; Area of lesion ([1]; 100 ppm, Table 3, control 87.5): 52.5%; Area of lesion ([1]; 100 ppm, Table 5, control 73.75): 50%; Area of lesion ([2]; 1 ppm, Table 6, control 100): 100%; Area of lesion ([2]; 1 ppm, Table 8, control 100): 100%; Area of lesion ([2]; 10 ppm, Table 6, control 100): 100%; Area of lesion ([2]; 10 ppm, Table 8, control 100): 100%; Area of lesion ([2]; 100 ppm, Table 6, control 100): 100%; Area of lesion ([2]; 100 ppm, Table 8, control 100): 100%; Induction of expression of the PR-1 gene (PR-1 gene): induces the expression of the PR-1 gene; Induction of expression of the PDF1.2 gene (PDF1.2 gene): does not induce the expression
